Here are results for 25 compounds from patent publication US20090247559A1 (Exelixis, Inc., priority 2007, published 2009).

For orientation: IC50 means the concentration that gives 50% inhibition.

Assay [1] deals with PIM (PIM-1, PIM-2, and/or PIM-3). Nature of the assay: PIM-1, PIM-2 and PIM-3 inhibition, biochemical chemiluminescence assays (Kinase Glo, IC50 determination). As to conditions: Table 1 activity class; PIM refers to PIM-1, PIM-2, and/or PIM-3; read-out: PIM IC50 (Activity B). The method, then:
(§1) The IC50 evaluation of compounds against the PIM-1 oncogene was performed in a Chemiluminesence assay utilizing a Greiner 384-well white medium binding white plate format. […] Following an incubation period of 120 minutes at ambient temperature (24-27° C.), 10 μL of Kinase Glo (Promega) was added. The luminescence was measured following a Luminescence Protocol on a Victor plate reader.
as §1, with “PIM-2” for “PIM-1”, “format. […] The assay procedure involves compound dilution followed by addition of 3 nM PIM-2 to the designated well plates and subsequent pre-incubation of the compounds with the enzyme for 30 minutes at ambient temperature (24-27° C.).” for “format.”
The IC50 evaluation of compounds against the PIM-3 Oncogene was performed in a Chemiluminesence assay utilizing a Greiner 384-well white medium binding white plate format. […] Following an incubation period of 120 minutes at ambient temperature (24-27° C.), 10 μL of Kinase Glo (Promega) was added. The luminescence was measured following a Luminescence Protocol on a Victor plate reader.
Background: In Kinase-Glo more light means more ATP remaining.

Assay [2] addresses CK2 (Homo sapiens, UniProt P68400). Put plainly: CK2 inhibition, biochemical chemiluminescence holoenzyme assay (Kinase Glo, IC50 determination). As to conditions: Table 1 activity class; symbol given only if active; read-out: CK2 IC50 (Activity C). The protocol:
Characterization of CK2 Inhibition in a Biochemical Chemiluminesence Assay (IC50 Determination):
The IC50 evaluation of compounds against CK2 was performed in a Chemiluminesence Holoenzyme assay utilizing a Greiner 384-well white medium binding white plate format. […] The assay procedure involves the compound dilution scheme followed by addition of 10 μL of the substrate twice, followed by 10 μL twice of the respective enzyme or buffer to the designated well plates and subsequent pre-incubation of the compounds. Following an incubation period of 150 minutes at ambient temperature (24-27° C.), 10 μL of Kinase Glo (Promega) was added. The luminescence was measured following a Luminescence Protocol on a Victor plate reader.

Some results are limits rather than exact numbers.

Sequence of CK2 (P68400 whole entry): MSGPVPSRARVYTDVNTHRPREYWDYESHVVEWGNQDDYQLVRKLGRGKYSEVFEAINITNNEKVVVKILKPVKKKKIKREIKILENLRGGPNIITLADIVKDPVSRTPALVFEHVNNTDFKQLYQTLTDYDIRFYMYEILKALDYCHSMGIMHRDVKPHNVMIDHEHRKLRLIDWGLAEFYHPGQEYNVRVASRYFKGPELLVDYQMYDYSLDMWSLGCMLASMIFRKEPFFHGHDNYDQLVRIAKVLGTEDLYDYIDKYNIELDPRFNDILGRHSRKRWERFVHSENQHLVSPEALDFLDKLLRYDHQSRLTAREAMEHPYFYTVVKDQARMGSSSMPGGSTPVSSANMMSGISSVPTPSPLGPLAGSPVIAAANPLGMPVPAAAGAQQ
Sequence of CK2 (P67870 whole entry partner): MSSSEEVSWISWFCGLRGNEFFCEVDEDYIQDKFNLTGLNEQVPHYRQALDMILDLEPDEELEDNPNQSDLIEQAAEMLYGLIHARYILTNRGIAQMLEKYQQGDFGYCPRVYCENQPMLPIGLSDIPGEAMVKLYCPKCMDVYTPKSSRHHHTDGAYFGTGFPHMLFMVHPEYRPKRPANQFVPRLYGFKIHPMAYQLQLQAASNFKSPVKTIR

Regarding `O=c1[nH]c(-c2cccs2)nc2c1oc1ccc(Br)cc12` [Compound 59, 8-bromo-2-(2-thienyl)[1]benzofuro[3,2-d]pyrimidin-4(3H)-one], the IC50 in assay [1] and in assay [2] was less than 10 µM throughout.

As to `Cc1cc(NC(=O)CN(C)C)ccc1-c1nc2c(oc3ccc(Br)cc32)c(=O)[nH]1` [Compound 62, N-[4-(8-bromo-4-oxo-3,4-dihydro[1]benzofuro[3,2-d]pyrimidin-2-yl)-3-methylphenyl]-N′2′,N′2′-dimethylglycinamide], the IC50 in assay [1] and in assay [2] was less than 10 µM each time.

On to `O=c1[nH]c(-c2ccccc2C(F)(F)F)nc2c1oc1ccc(Br)cc12` [Compound 65, 8-bromo-2-[2-(trifluoromethyl)phenyl][1]benzofuro[3,2-d]pyrimidin-4(3H)-one], for which the half-inhibitory concentration (IC50) in assay [1] and in assay [2] was less than 10 µM in each case.

For `COc1cc(Br)c(-c2nc3c(oc4ccc(Br)cc43)c(=O)[nH]2)cc1OC` [Compound 66, 8-bromo-2-[2-bromo-4,5-bis(methyloxy)phenyl][1]benzofuro[3,2-d]pyrimidin-4(3H)-one], the IC50 in assay [1] and in assay [2] was less than 10 µM in each case.

As to `COc1ccc(F)c(-c2nc3c(oc4ccc(Br)cc43)c(=O)[nH]2)c1` [Compound 67, 8-bromo-2-[2-fluoro-5-(methyloxy)phenyl][1]benzofuro[3,2-d]pyrimidin-4(3H)-one], the IC50 in assay [1] and in assay [2] was less than 10 µM in each case.

For the compound `COc1ccc(-c2nc3c(oc4ccc(Br)cc43)c(=O)[nH]2)c(Cl)c1OC` [Compound 68, 8-bromo-2-[2-chloro-3,4-bis(methyloxy)phenyl][1]benzofuro[3,2-d]pyrimidin-4(3H)-one], the IC50 in assay [1] and in assay [2] was less than 10 µM throughout.

With `O=c1[nH]c(-c2ccc(Cl)s2)nc2c1oc1ccc(Br)cc12` [Compound 69, 8-bromo-2-(5-chloro-2-thienyl)[1]benzofuro[3,2-d]pyrimidin-4(3H)-one], the IC50 in assay [1] and in assay [2] was less than 10 µM throughout.

As to `O=c1[nH]c(-c2c(F)cccc2F)nc2c1oc1ccc(Br)cc12` [Compound 70, 8-bromo-2-(2,6-difluorophenyl)[1]benzofuro[3,2-d]pyrimidin-4(3H)-one], the IC50 in assay [1] and in assay [2] was less than 10 µM in each case.

`CN1CCN(c2ccc(NCc3nc4c(oc5ccc(Br)cc54)c(=O)[nH]3)cc2)CC1` [Compound 75, 8-bromo-2-({[4-(4-methylpiperazin-1-yl)phenyl]amino}methyl)[1]benzofuro[3,2-d]pyrimidin-4(3H)-one]: the IC50 in assay [1] and in assay [2] was less than 10 µM throughout.

Take `CCc1ccccc1-c1nc2c(oc3ccc(Br)cc32)c(=O)[nH]1` [Compound 77, 8-bromo-2-(2-ethylphenyl)[1]benzofuro[3,2-d]pyrimidin-4(3H)-one]: the IC50 in assay [1] and in assay [2] was less than 10 µM in each case.

Take `COc1ccc(Br)c(-c2nc3c(oc4ccc(Br)cc43)c(=O)[nH]2)c1` [Compound 78, 8-bromo-2-[2-bromo-5-(methyloxy)phenyl][1]benzofuro[3,2-d]pyrimidin-4(3H)-one]: the IC50 in assay [1] and in assay [2] was less than 10 µM each time.

Take `COc1ccc(-c2nc3c(oc4ccc(Br)cc43)c(=O)[nH]2)c(Cl)c1` [Compound 79, 8-bromo-2-[2-chloro-4-(methyloxy)phenyl][1]benzofuro[3,2-d]pyrimidin-4(3H)-one]: the IC50 in assay [1] and in assay [2] was less than 10 µM in each case.

Regarding `CC(=O)Nc1ccc(-c2nc3c(oc4ccc(Br)cc43)c(=O)[nH]2)cc1` [Compound 80, N-[4-(8-bromo-4-oxo-3,4-dihydro[1]benzofuro[3,2-d]pyrimidin-2-yl)phenyl]acetamide], the IC50 in assay [1] and in assay [2] was less than 10 µM in each case.

In the case of `O=c1[nH]c(-c2ncc[nH]2)nc2c1oc1ccc(Br)cc12` [Compound 85, 8-bromo-2-(1H-imidazol-2-yl)[1]benzofuro[3,2-d]pyrimidin-4(3H)-one], the IC50 in assay [1] and in assay [2] was less than 10 µM each time.

On to `CSc1ccccc1-c1nc2c(oc3ccc(Br)cc32)c(=O)[nH]1` [Compound 88, 8-bromo-2-[2-(methylthio)phenyl][1]benzofuro[3,2-d]pyrimidin-4(3H)-one], for which the IC50 in assay [1] and in assay [2] was less than 10 µM in each case.

Consider `O=C(NC1CCCCC1)c1cccc(-c2nc3c(oc4ccc(Br)cc43)c(=O)[nH]2)c1` [Compound 92, 3-(8-bromo-4-oxo-3,4-dihydro[1]benzofuro[3,2-d]pyrimidin-2-yl)-N-cyclohexylbenzamide], for which the IC50 in assay [1] and in assay [2] was less than 10 µM throughout.

For the compound `O=c1[nH]c(-c2cccc(Cl)c2)nc2c1oc1ccc(Br)cc12` [Compound 93, 8-Bromo-2-(3-chlorophenyl)[1]benzofuro[3,2-d]pyrimidin-4(3H)-one], the IC50 in assay [1] and in assay [2] was less than 10 µM each time.

As to `O=c1[nH]c(-c2ccccc2Cl)nc2c1oc1ccc3ccccc3c12` [Compound 96, 10-(2-Chlorophenyl)naphtho[1′,2′:4,5]furo[3,2-d]pyrimidin-8(9H)-one], the IC50 in assay [1] and in assay [2] was less than 10 µM throughout.

Consider `O=C(NCc1ccccc1)c1cccc(-c2nc3c(oc4ccc(Br)cc43)c(=O)[nH]2)c1` [Compound 99, 3-(8-bromo-4-oxo-3,4-dihydro[1]benzofuro[3,2-d]pyrimidin-2-yl)-N-(phenylmethyl)benzamide], for which the IC50 in assay [1] and in assay [2] was less than 10 µM in each case.

Take `CC(C)CNC(=O)c1cccc(-c2nc3c(oc4ccc(Br)cc43)c(=O)[nH]2)c1` [Compound 101, 3-(8-bromo-4-oxo-3,4-dihydro[1]benzofuro[3,2-d]pyrimidin-2-yl)-N-(2-methylpropyl)benzamide]: the IC50 in assay [1] and in assay [2] was less than 10 µM throughout.

`CN1CCN(c2ccc(COCc3nc4c(oc5ccc(Br)cc54)c(=O)[nH]3)cc2)CC1` [Compound 102, 8-bromo-2-[({[4-(4-methylpiperazin-1-yl)phenyl]methyl}oxy)methyl][1]benzofuro[3,2-d]pyrimidin-4(3H)-one]: the IC50 in assay [1] and in assay [2] was less than 10 µM throughout.

In the case of `CN(C)c1ccc(CNCc2nc3c(oc4ccc(Br)cc43)c(=O)[nH]2)cc1` [Compound 104, 8-bromo-2-[({[4-(dimethylamino)phenyl]methyl}amino)methyl][1]benzofuro[3,2-d]pyrimidin-4(3H)-one], the IC50 in assay [1] and in assay [2] was less than 10 µM each time.

For `O=c1[nH]c(CCN2CCCC2)nc2c1oc1ccc(Br)cc12` [Compound 105], the half-inhibitory concentration (IC50) in assay [1] and in assay [2] was less than 10 µM each time.

Take `O=c1[nH]c(CC2CCNCC2)nc2c1oc1ccc(Br)cc12` [Compound 122, 8-bromo-2-(piperidin-4-ylmethyl)[1]benzofuro[3,2-d]pyrimidin-4(3H)-one]: the IC50 in assay [1] and in assay [2] was less than 10 µM each time.

Regarding `CN(C)CCCCNc1ccc(-c2nc3c(oc4ccc(Br)cc43)c(=O)[nH]2)c(Cl)c1` [Compound 136, 8-bromo-2-(2-chloro-4-{[4-(dimethylamino)butyl]amino}phenyl)[1]benzofuro[3,2-d]pyrimidin-4(3H)-one], the IC50 in assay [1] and in assay [2] was less than 10 µM in each case.
